Experimental data taken from patent US8877889B2, “Tumor cell-killing peptides” (Industry-Academic Cooperation Foundation, Chosun University, priority 2009, dated 2014).
Entries after “also recorded” stand apart in the source; their conditions may differ.

How the values were obtained:
Format in all cases: cell-based
[1] = test system: HeLa cells; assay: Peptide-induced cell death, counting dead and survived cells under the light microscope; details: peptides 10 μM, 20 μM, 30 μM, 10 minutes after treatment (FIG. 1B, 3A)
Method: (B) HeLa cells were treated with DMSO or the indicated peptides in increasing doses (10 μM, 20 μM, and 30 μM). % of cell death was determined at 10 minutes after treatment by counting the dead cells and survived cells under the light microscope.
(E) HeLa cells were transfected with substitution mutants of MTD peptide.
HeLa cells were treated with DMSO or with the indicated peptides at increasing doses (10 μM, 20 μM, or 30 μM). % cell death was determined 10 minutes after treatment by counting the dead cells and survived cells (300 cells per sample) under the light microscope.
(D) HeLa cells were treated with indicated amounts of MTD peptide for 1 hour, 2 hours, or 5 hours. % cell death was calculated by counting the dead cells and survived cells (200 to 500 cells per sample) under the light microscope. Data represent the means±SD of three independent experiments.

[2] = test system: HeLa cells; assay: Caspase activation, western blot of cell lysates; details: 5 μM peptide
Method: (E) After treatment with the MTD peptide, MTDmt4, or MTDmt5 (5 μM) in HeLa cells, cell lysates were prepared at indicated times. Equal amounts of proteins were subjected to the SDS-PAGE and blotted onto PVDF membrane. After blocked with 5% nonfat milk in TBST (10 mM Tris-HCl, pH 7.5, 100 mM NaCl and 0.1% Tween-20), the membrane was probed with anti-caspase-3 (SantaCruz Biotechnology, Inc., Santa Cruz, Calif., USA), anti-caspase-8 (Cell signaling technology, Beverly, Mass., USA), anti-caspase-9 (SantaCruz Biotechnology, Inc., Santa Cruz, Calif.), anti-XIAP (Upstate Biotechnology, Dundee, United Kingdom), or anti-Bid (home-made) antibodies. Anti-actin antibody (Chemicon International, Inc., Temecula, Calif., USA) was used as equal loading control.

[3] = test system: NCI-H460 cells; assay: Peptide-induced cell death in NCI-H460 cells; details: 5 μM, 2 or 5 hours (FIG. 3C)
Method: (C) NCI-H460 cells were treated with indicated peptides for 2 hours or 5 hours. % cell death was determined as described above.

[4] = test system: HeLa cells; assay: Measurement of intracellular calcium with Fluo-4-AM; details: 3 μM peptide
Method: (A-C) HeLa cells were loaded with 3 μM Fluo-4-AM for 30 minutes and then treated with 3 μM of indicated peptides (A: MTD, B: MTDmt3, C: MTDmt5). Fluorescence images and bright-field images were obtained with the laser scanning confocal microscope at 5-second intervals for 5 minutes. Relative fluorescence intensities (F/F0) at two region-of-interests (ROI 1 and 2) were measured at 5-second intervals for 5 minutes.
(E-G) HeLa cells were pretreated in calcium free KRB media alone (E), in KRB media with 10 μM 2-APB and 20 μM Ryanodine (F), or in KRB media with freshly made 30 μM CsA (G) for 2 hours. HeLa cells were then loaded with 3 μM Fluo-4-AM for 30 minutes and treated with 3 μM of MTD peptide. Images were obtained with the laser scanning confocal microscope at 5-second intervals for 5 minutes. Relative fluorescence intensities (F/F0) at two region-of-interests (ROI 1 and 2) were measured at 5-second intervals for 5 minutes.
For Ca^2+ measurements in the cytosol, HeLa cells were cultured in an Lab-Tek™ Chamber glass slide and loaded with Fluo-4-AM (Fluo-4-acetoxymethyl ester) at a final concentration of 3 μM for 30 minutes, followed by washing with PBS (Phosphate buffered saline) at pH 7.4 and the addition of fresh Ca^2+-free Krebs-ringer modified buffer (KRB: 125 mM NaCl, 5 mM KCl, 1 mM Na3PO4, 1 mM MgSO4, 5.5 mM glucose, and 20 mM HEPES, pH 7.4, at 37° C.) containing the indicated peptides. Time-lapse images were obtained at 488 nm excitation with the Argon laser scanning confocal microscope (Leica TCS SP5 Microsystems, Mannheim, Germany) at 10-second intervals for 5 minutes to visualize Fluo-4-AM.

[5] = test system: HeLa cells; assay: Cell death after transfection of Noxa constructs, counting EGFP-positive dead cells; details: for cell death-inducing activity of Noxa point mutants: 20 hours after transfection (FIG. 3B); for cell death-inducing activity of leucine substitution mutants 4Lmt, 5Lmt: HeLa cells transfected (FIG. 8A); for cell death after over-expression: within 11 hrs after transfection (FIG. 1D)
Method: (D) HeLa cells were transfected with deletion mutants of Noxa. At 11 hrs, 24 hrs, and 36 hrs after transfection, cell death was determined by counting EGFP-positive dead cells with morphological changes using the fluorescent microscope.
(B) HeLa cells were transfected with WT or with the indicated Noxa mutants. 20 hours after transfection cell death was determined by counting the EGFP-positive dead and survived cells under the fluorescent microscope.
(A) HeLa cells were transfected with either WT Noxa, 4Lmt (L42A, L43A, L45A, L49A), or 5Lmt (L29A, L42A, L43A, L45A, L49A) constructs. At the indicated times after transfection, cell death was determined by counting the EGFP-positive dead cells with morphological changes under the fluorescent microscope.
HeLa cells were transfected with EGFP-Noxa WT and 41-54 in combination with Bcl-2 expression plasmid or in the presence of zVAD-fmk (25 μM). 18 hours after transfection, cell death was determined by counting EGFP-positive dead cells with morphological changes using the fluorescent microscope. Data represent an average±SD of three experiments each with 200 total cells counted.
The percentage of cell death was determined by counting EGFP-positive dead cells with morphology using the fluorescent microscope. Minimally, 300 cells in three separate fields were counted for each measurement.

[6] = test system: HeLa cells; assay: Mitochondrial localization of Noxa mutants, confocal microscopy; details: confocal microscopic image analysis
Source text: (B) HeLa cells were co-transfected with the pDsRed2-Mito and either Noxa 4Lmt or Noxa 5Lmt. 18 hrs after transfection the mitochondrial morphology was observed under the laser confocal microscope.

[7] = test system: CT26 mouse colon carcinoma cells; assay: Tumor cell killing activity, bright field images; details: 10 μM peptide (FIG. 9A)
Method: (A) CT26 cells were treated with 10 μM MTD, TU1:MTD, TU2:MTD, or TU3:MTD peptides, and bright field images for indicated peptides were obtained at indicated time points. Representative images of at least 3 individual experiments were presented.

[8] = test system: HeLa cells; assay: Live cell images and annexin V / SYTOX Green staining of dying cells; details: MTD peptide 10 μM or TRAIL 100 ng/ml (FIG. 2A, 7A, 7B)
Method: (A) HeLa cells were treated with MTD peptides (10 μM), or TRAIL (100 ng/ml). Images were taken at the indicated times (upper panel). Jurkat cells were treated with MTD peptide (10 μM) for 10 minutes, cells were processed for TEM. Images were obtained with 4,000× magnification (lower panel). N: nucleus, M: mitochondrion.
(D) HeLa cells were treated with the MTD (5 μM) peptide with or without the pretreatment of 10 μM BAPTA-AM for 2 hours. Live cell images were serially acquired at 10-second intervals for 10 minutes and shown at the indicated times.
(A) HeLa cells were stained with FITC-conjugated Annexin V antibody at 10 minutes after DMSO or MTD treatment. Images were obtained under the confocal microscope.
(B) HeLa cells were stained with SYTOX Green 10 minutes after DMSO or MTD treatment. Images were obtained using confocal microscope.

RRRRRRRRGRQKLLNLIAALF (PTD-MTDmt4 fusion peptide derived from Homo sapiens)
cell death-inducing activity (% of cell death) [1]: maintaining the killing activity | caspase activation [2]: not activated

RRRRRRRRGRQKLLNAASKLF (PTD-MTDmt3 fusion peptide derived from Homo sapiens)
cell death-inducing activity (% of cell death) [1]: completely lost their cell death-inducing activities; also recorded: no cell death | susceptibility of cells to peptide [3]: not | cytosolic calcium level change [4]: did not induce changes in the cytosolic calcium level

3Lmt: Noxa triple substitution L45A, L49A and L29A (MPGKKARKNAQPSPARAPAELEVECATQARRFGDKLNFRQKLLNAISKAFCSGT; UniProt Q13794 1-54, looked up, variant L29A L45A L49A)
cell death-inducing activity of Noxa point mutants ([5]; HeLa cells): remarkably reduced the cell death-inducing activities

5Lmt: Noxa mutant with L29A, L42A, L43A, L45A and L49A (MPGKKARKNAQPSPARAPAELEVECATQARRFGDKLNFRQKAANAISKAFCSGT; UniProt Q13794 1-54, looked up, variant L29A L42A L43A L45A L49A)
cell death-inducing activity of leucine substitution mutants 4Lmt, 5Lmt [5]: almost completely lost all of the cell death-inducing activity | mitochondrial localization [6]: loss of Noxa mitochondrial localization

4Lmt: Noxa mutant with L42A, L43A, L45A and L49A (MPGKKARKNAQPSPARAPAELEVECATQLRRFGDKLNFRQKAANAISKAFCSGT; UniProt Q13794 1-54, looked up, variant L42A L43A L45A L49A)
cell death-inducing activity of leucine substitution mutants 4Lmt, 5Lmt [5]: almost completely lost all of the cell death-inducing activity | mitochondrial localization [6]: loss of Noxa mitochondrial localization

21-40: Noxa deletion mutant containing only the BH3 domain (LEVECATQLRRFGDKLNFRQ; UniProt Q13794 21-40, looked up, fragment)
cell death-inducing activity after over-expression, with increasing time ([5]; HeLa cells, 24 hrs and 36 hrs after transfection (FIG. 1D)): strong cell death-inducing activity | membrane morphology of transfected cells ([5]; HeLa cells, data not shown): membrane blebbings | cell death after over-expression ([5]; HeLa cells): induced little cell death within 11 hrs

L42A (MPGKKARKNAQPSPARAPAELEVECATQLRRFGDKLNFRQKALNLISKLFCSGT; UniProt Q13794 1-54, looked up, variant L42A)
mitochondrial localization [6]: maintained the typical mitochondrial localization of Noxa

1-30: Noxa deletion mutant which did not contain any domains (MPGKKARKNAQPSPARAPAELEVECATQLR; UniProt Q13794 1-30, looked up, fragment)
cell death after over-expression ([5]; HeLa cells): no effect on cell death

L29A: Noxa single substitution in the BH3 domain (MPGKKARKNAQPSPARAPAELEVECATQARRFGDKLNFRQKLLNLISKLFCSGT; UniProt Q13794 1-54, looked up, variant L29A)
cell death-inducing activity of Noxa point mutants ([5]; HeLa cells): remarkably reduced the cell death-inducing activities

L45A (MPGKKARKNAQPSPARAPAELEVECATQLRRFGDKLNFRQKLLNAISKLFCSGT; UniProt Q13794 1-54, looked up, variant L45A)
cell death-inducing activity of Noxa point mutants ([5]; HeLa cells): remarkably reduced the cell death-inducing activities | mitochondrial localization [6]: maintained the typical mitochondrial localization of Noxa

L43A (MPGKKARKNAQPSPARAPAELEVECATQLRRFGDKLNFRQKLANLISKLFCSGT; UniProt Q13794 1-54, looked up, variant L43A)
mitochondrial localization [6]: maintained the typical mitochondrial localization of Noxa

L49A (MPGKKARKNAQPSPARAPAELEVECATQLRRFGDKLNFRQKLLNLISKAFCSGT; UniProt Q13794 1-54, looked up, variant L49A)
cell death-inducing activity of Noxa point mutants ([5]; HeLa cells): remarkably reduced the cell death-inducing activities | mitochondrial localization [6]: maintained the typical mitochondrial localization of Noxa

CNGRCGGKLLNLISKLF [TU1:MTD]
tumor cell killing activity [7]: no or little killing activity

B1: TRAIL (protein, UniProt P50591 1-281, looked up)
Tumor necrosis factor ligand …: MAMMEVQGGPSLGQTCVLIVIFTVLLQSLCVAVTYVYFTNELKQMQDKYSKSGIACFLKEDDSYWDPNDEESMNSPCWQVKWQLRQLVRKMILRTSEETISTVQEKQQNISPLVRERGPQRVAAHITGTRGRSNTLSSPNSKNEKALGRKINSWESSRSGHSFLSNLHLRNGELVIHEKGFYYIYSQTYFRFQEEIKENTKNDKQMVQYIYKYTSYPDPILLMKSARNSCWSKDAEYGLYSIYQGGIFELKENDRIFVSVTNEHLIDMDHEASFFGAFLVG
notes: apoptosis inducer used at 100 ng/ml for comparison
morphology of dying cells [8]: membrane shrinkage of apoptotic cells
